Legend:
μI-II = μI-II (Rattus norvegicus, UniProt P97571); assay: Fluorimetric FRET-substrate assay of μI-II inhibition; assay type: biochemical; settings: inhibitor 50 μM; 125 nM μI-II; 1.3 μM (EDANS)-EPLFAERK-(DABCYL); 4 mM CaCl2; FIG. 1B
Method: (§1) FIG. 1 is a pair of graphs showing the inhibitory effect of Z-Leu-Abu-CONH—(CH2)3-adenin-9-yl, and Z-Leu-Abu-CONH—(CH2)3-(4-methylpiperazin-1-yl) on m-calpain (FIG. 1A) and μI-II (FIG. 1B). Duplicate assays were performed by adding 1.3 μM (EDANS)-EPLFAERK(SEQ ID NO:1)-(DABCYL) (A), 125 nM calpain (B), and 4 mM CaCl2 (C), then averaged to yield the plots shown. Autolytic inactivation of m-calpain, but not μI-II, was observed when no inhibitor was added (X). Immediately following addition of each inhibitor (D), the increase in fluorescence intensity was attenuated.
(§2) Enzymatic activity was monitored in real-time using a 1.5 mL quartz cuvette and a Perkin-Elmer LS50-B Luminescence Spectrophotometer. Duplicate assays were performed with 1.3 μM (EDANS)-EPLFAERK(SEQ ID NO:1)-(DABCYL) and 125 nM μI-II or m-calpain in a buffer solution containing 50 mM HEPES-HCl (pH 7.7) and 10 mM DTT. The reaction was initiated 420 seconds after mixing by the addition of 4 mM CaCl2 and monitored at excitation and emission wavelengths of 335 nm and 500 nm, respectively. After a waiting period of 100 seconds, the inhibitor solution (either Z-Leu-Abu-CONH—(CH2)3-adenin-9-yl, or Z-Leu-Abu-CONH—(CH2)3-(4-methylpiperazin-1-yl) dissolved in DMSO) was added at a concentration of 1 μM (for the m-calpain assays) or 50 μM (for the μI-II assays). […]

m-calpain = target: T1, m-calpain (Rattus norvegicus, UniProt Q07009); assay: Fluorimetric FRET-substrate assay of m-calpain inhibition; assay type: biochemical; settings: inhibitor 1 μM; 125 nM m-calpain; 1.3 μM (EDANS)-EPLFAERK-(DABCYL); 4 mM CaCl2; FIG. 1A
T1 sequence (Q07009 1-700): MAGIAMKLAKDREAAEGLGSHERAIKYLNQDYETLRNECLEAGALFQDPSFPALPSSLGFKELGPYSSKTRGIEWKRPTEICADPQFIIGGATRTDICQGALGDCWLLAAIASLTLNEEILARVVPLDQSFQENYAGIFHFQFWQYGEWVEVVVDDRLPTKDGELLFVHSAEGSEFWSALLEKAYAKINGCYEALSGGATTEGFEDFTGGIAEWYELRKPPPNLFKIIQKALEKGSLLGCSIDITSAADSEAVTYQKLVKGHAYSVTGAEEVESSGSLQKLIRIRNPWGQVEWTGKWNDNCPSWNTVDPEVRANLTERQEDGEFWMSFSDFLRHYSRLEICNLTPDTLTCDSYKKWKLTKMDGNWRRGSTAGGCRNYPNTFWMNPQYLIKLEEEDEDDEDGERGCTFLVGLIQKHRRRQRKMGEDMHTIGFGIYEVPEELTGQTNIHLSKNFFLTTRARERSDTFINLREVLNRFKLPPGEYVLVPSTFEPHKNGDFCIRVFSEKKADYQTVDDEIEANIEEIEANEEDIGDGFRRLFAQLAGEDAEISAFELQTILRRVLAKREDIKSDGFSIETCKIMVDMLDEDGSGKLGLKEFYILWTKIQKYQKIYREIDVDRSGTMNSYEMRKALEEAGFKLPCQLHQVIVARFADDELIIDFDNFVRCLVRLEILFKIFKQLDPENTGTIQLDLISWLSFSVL
T1 sequence (Q64537 87-270 partner limits assumed): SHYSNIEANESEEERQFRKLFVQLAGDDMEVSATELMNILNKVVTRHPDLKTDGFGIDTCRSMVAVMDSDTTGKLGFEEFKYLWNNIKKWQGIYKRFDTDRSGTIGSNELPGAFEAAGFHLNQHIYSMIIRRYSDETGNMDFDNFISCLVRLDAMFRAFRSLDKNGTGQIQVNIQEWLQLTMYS
Method: as §1, §2

calpain II = settings: literature statement; cited from earlier work
[1] = system: other cysteine proteases such as cathepsins; settings: literature statement; cited from earlier work
calpain I = target: T2, calpain I (Homo sapiens, UniProt P07384); settings: literature statement; cited from earlier work
T2 sequence (P07384 1-714): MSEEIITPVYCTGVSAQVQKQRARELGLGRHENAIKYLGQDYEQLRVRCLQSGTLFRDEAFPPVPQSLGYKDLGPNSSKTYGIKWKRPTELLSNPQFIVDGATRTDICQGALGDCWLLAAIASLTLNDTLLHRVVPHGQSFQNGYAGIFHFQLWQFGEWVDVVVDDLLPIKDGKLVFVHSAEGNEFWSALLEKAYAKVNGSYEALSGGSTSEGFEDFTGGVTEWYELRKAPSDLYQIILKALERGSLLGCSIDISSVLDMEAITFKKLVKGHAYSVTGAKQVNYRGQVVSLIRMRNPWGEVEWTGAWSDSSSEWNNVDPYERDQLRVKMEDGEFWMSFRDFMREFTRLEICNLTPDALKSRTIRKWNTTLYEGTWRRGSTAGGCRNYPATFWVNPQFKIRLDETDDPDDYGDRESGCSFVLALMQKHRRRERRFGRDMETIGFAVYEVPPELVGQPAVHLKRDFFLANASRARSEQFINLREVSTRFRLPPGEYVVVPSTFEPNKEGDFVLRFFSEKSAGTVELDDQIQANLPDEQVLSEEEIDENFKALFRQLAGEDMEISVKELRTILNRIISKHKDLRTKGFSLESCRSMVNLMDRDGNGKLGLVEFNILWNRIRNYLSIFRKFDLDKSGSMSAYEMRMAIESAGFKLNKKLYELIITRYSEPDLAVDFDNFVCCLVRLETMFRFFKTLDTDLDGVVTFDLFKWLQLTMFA
T2 sequence (P04632 1-268 partner): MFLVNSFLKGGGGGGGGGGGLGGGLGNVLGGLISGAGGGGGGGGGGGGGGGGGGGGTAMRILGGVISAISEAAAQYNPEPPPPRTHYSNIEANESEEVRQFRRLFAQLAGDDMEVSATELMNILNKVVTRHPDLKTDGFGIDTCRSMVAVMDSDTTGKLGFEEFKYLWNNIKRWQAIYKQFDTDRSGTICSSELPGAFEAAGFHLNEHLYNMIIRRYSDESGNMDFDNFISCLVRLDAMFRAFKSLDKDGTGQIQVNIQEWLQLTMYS

μI-II, sequence (P97571 55-354 limits assumed): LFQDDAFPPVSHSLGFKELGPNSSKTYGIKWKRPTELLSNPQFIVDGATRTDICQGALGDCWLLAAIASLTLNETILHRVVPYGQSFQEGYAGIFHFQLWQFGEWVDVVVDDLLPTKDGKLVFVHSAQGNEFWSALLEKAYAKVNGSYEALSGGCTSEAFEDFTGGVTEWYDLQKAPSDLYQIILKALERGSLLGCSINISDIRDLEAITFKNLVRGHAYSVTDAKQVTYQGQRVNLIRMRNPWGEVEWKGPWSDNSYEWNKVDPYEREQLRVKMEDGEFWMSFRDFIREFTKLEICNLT

SMILES | attenuation of the increase in fluorescence intensity (cleavage of FRET substrate) by μI-II (μI-II) | attenuation of the increase in fluorescence intensity (cleavage of FRET substrate) by m-calpain (m-calpain) | inhibition of calpain II (calpain II) | inhibitory activity toward other cysteine proteases such as cathepsins [1] | inhibition of calpain I (calpain I)
CCC(NC(=O)[C@H](CC(C)C)NC(=O)OCc1ccccc1)C(=O)C(=O)NCCCn1cnc2c(N)ncnc21 (stereo partly drawn) [Z-Leu-Abu-CONH—(CH2)3-adenin-9-yl, 3-(Benzyloxycarbonyl-L-leucylamino)-N-(3-(6-amino-9H-purin-9-yl)propyl)-2-oxopentanamide] | more distinct attenuation of fluorescence | more distinct attenuation of fluorescence | – | – | –
CCC(NC(=O)[C@H](CC(C)C)NC(=O)OCc1ccccc1)C(=O)C(=O)NCCCN1CCOCC1 (stereo partly drawn) [AK295, Z-Leu-Abu-CONH—(CH2)3-4-morpholinyl] | – | – | potent transition-state inhibitor | some inhibitory activity | potent transition-state inhibitor
CCC(NC(=O)[C@H](CC(C)C)NC(=O)OCc1ccccc1)C(=O)C(=O)NCCCN1CCN(C)CC1 (stereo partly drawn) [3-(Benzyloxycarbonyl-L-leucylamino)-N-(3-(4-methylpiperazin-1-yl)propyl)-2-oxopentanamide] | immediately attenuated | immediately attenuated | – | – | –
